Experiments:
[1] = system: electrically-stimulated guinea pig ileum (GPI) preparations; assay: Antagonist activity: displacement of the morphine concentration-response curve on guinea pig ileum preparation; details: for Antagonism (Morphine IC50 Ratio): factor by which the morphine concentration-response curve is shifted to higher concentration: IC50 of morphine with antagonist / control IC50, 3 determinations
[2] = system: electrically-stimulated guinea pig ileum (GPI) preparations; assay: Agonist activity: inhibition of contraction of electrically-stimulated guinea pig ileum (GPI) preparation, compared to morphine; parameters: Emax: dose or concentration left out as unconfirmed; details: for Emax: Cavia porcellus, read-out: Agonism: partial agonist, maximal response relative to that of morphine; for Agonist activity on GPI (in words): compared to morphine; for Agonism (Morphine = 1): potency factor for the inhibition of contraction relative to that of morphine: electrically stimulated guinea pig ileum, 3 determinations

Structure (SMILES): O=C(O)CCC(=O)NC1CC[C@@]2(O)[C@H]3Cc4ccc(O)c5c4[C@@]2(CCN3CC2CC2)[C@H]1O5 (stereo partly drawn) [Compound 1]
- Antagonism (Morphine IC50 Ratio): factor by which the morphine concentration-response curve is shifted to higher concentration ([1]; ligand concentration 200 nM): 11.0
- Emax [2]: 30 to 60%
- Agonist activity on GPI (in words) [2]: submaximal responses relative to morphine

Structure (SMILES): O=C(O)/C=C/C(=O)NC1CC[C@@]2(O)[C@H]3Cc4ccc(O)c5c4[C@@]2(CCN3CC2CC2)[C@H]1O5 (stereo partly drawn) [Compound 3]
- Antagonism (Morphine IC50 Ratio): factor by which the morphine concentration-response curve is shifted to higher concentration ([1]; ligand concentration = 20 nM): 3.7
- Agonism (Morphine = 1): potency factor for the inhibition of contraction relative to that of morphine [2]: 3

Structure (SMILES): O=C(O)COCC(=O)NC1CC[C@@]2(O)[C@H]3Cc4ccc(O)c5c4[C@@]2(CCN3CC2CC2)[C@H]1O5 (stereo partly drawn) [Compound 4]
- Antagonism (Morphine IC50 Ratio): factor by which the morphine concentration-response curve is shifted to higher concentration ([1]; ligand concentration 200 nM): 34.8
- Emax [2]: 30 to 60%
- Agonist activity on GPI (in words) [2]: submaximal responses relative to morphine

Structure (SMILES): N=C(N)NCCCC(N)C(=O)N[C@@H]1CC[C@@]2(O)[C@H]3Cc4ccc(O)c5c4[C@@]2(CCN3CC2CC2)[C@H]1O5 (stereo partly drawn) [Compound 5, Arginyl-β-naltrexamine]
- Antagonism (Morphine IC50 Ratio): factor by which the morphine concentration-response curve is shifted to higher concentration ([1]; ligand concentration 200 nM): 4.0
- Emax [2]: 30 to 60%
- Agonist activity on GPI (in words) [2]: submaximal responses relative to morphine

Structure (SMILES): NC(CC(=O)O)C(=O)NC1CCC2(O)C3Cc4ccc(O)c5c4C2(CCN3CC2CC2)C1O5 (stereo not drawn) [Compound 6]
- Morphine antagonist activity on GPI (in words) [1]: possible exception to this generality
- Antagonism (Morphine IC50 Ratio): factor by which the morphine concentration-response curve is shifted to higher concentration ([1]; ligand concentration 200 nM): 1
- Agonism (Morphine = 1): potency factor for the inhibition of contraction relative to that of morphine [2]: 14.2

Structure (SMILES): O=C(O)CN[C@@H]1CC[C@@]2(O)[C@H]3Cc4ccc(O)c5c4[C@@]2(CCN3CC2CC2)[C@H]1O5 [Compound 7, β-Naltrexamineacetic acid]
- Antagonism (Morphine IC50 Ratio): factor by which the morphine concentration-response curve is shifted to higher concentration ([1]; ligand concentration = 20 nM): 2.4
- Emax [2]: 30 to 60%
- Agonist activity on GPI (in words) [2]: submaximal responses relative to morphine

Structure (SMILES): CN1CC[C@]23c4c5ccc(O)c4O[C@H]2C(NC(=O)CCC(=O)O)CC[C@@]3(O)[C@H]1C5 (stereo partly drawn) [Compound 8]
- Antagonism (Morphine IC50 Ratio): factor by which the morphine concentration-response curve is shifted to higher concentration ([1]; ligand concentration 200 nM): 1
- Agonism (Morphine = 1): potency factor for the inhibition of contraction relative to that of morphine [2]: 1.6

Structure (SMILES): CN1CC[C@]23c4c5ccc(O)c4O[C@H]2C(NC(=O)/C=C/C(=O)O)CC[C@@]3(O)[C@H]1C5 (stereo partly drawn) [Compound 9]
- Antagonism (Morphine IC50 Ratio): factor by which the morphine concentration-response curve is shifted to higher concentration ([1]; ligand concentration 200 nM): 1
- Agonism (Morphine = 1): potency factor for the inhibition of contraction relative to that of morphine [2]: 1.5

Structure (SMILES): CN1CC[C@]23c4c5ccc(O)c4O[C@H]2C(NC(=O)/C=C\C(=O)O)CC[C@@]3(O)[C@H]1C5 (stereo partly drawn) [Compound 10]
- Antagonism (Morphine IC50 Ratio): factor by which the morphine concentration-response curve is shifted to higher concentration ([1]; ligand concentration 200 nM): 1
- Agonism (Morphine = 1): potency factor for the inhibition of contraction relative to that of morphine [2]: 2.7

Structure (SMILES): CN1CC[C@]23c4c5ccc(O)c4O[C@H]2C(NC(=O)COCC(=O)O)CC[C@@]3(O)[C@H]1C5 (stereo partly drawn) [Compound 11]
- Antagonism (Morphine IC50 Ratio): factor by which the morphine concentration-response curve is shifted to higher concentration ([1]; ligand concentration 200 nM): 1
- Agonism (Morphine = 1): potency factor for the inhibition of contraction relative to that of morphine [2]: 3.1

Structure (SMILES): CN1CC[C@]23c4c5ccc(O)c4O[C@H]2C(NC(=O)C(N)CC(=O)O)CC[C@@]3(O)[C@H]1C5 (stereo partly drawn) [Compound 12]
- Antagonism (Morphine IC50 Ratio): factor by which the morphine concentration-response curve is shifted to higher concentration ([1]; ligand concentration 200 nM): 1
- Agonism (Morphine = 1): potency factor for the inhibition of contraction relative to that of morphine [2]: 6.1

Structure (SMILES): O=C(O)CNN=C1CC[C@@]2(O)[C@H]3Cc4ccc(O)c5c4[C@@]2(CCN3CC2CC2)[C@H]1O5 [Compound 15, Naltrexazoneacetic acid]
- Antagonism (Morphine IC50 Ratio): factor by which the morphine concentration-response curve is shifted to higher concentration ([1]; ligand concentration 200 nM): 100
- Emax [2]: 30 to 60%

Structure (SMILES): N=C(N)NN=C1CC[C@@]2(O)[C@H]3Cc4ccc(O)c5c4[C@@]2(CCN3CC2CC2)[C@H]1O5 [Compound 16, Naltrexazone iminosemicarbazone]
- Agonism (Morphine = 1): potency factor for the inhibition of contraction relative to that of morphine [2]: 29

— patent publication US4806556A, “Gut-selective opiates” (Regents of the University of Minnesota, priority 1987, dated 1989)
